The values below come from patent US11384078B2, “5,6-fused-bicyclic compounds and compositions for the treatment of parasitic diseases” (NOVARTIS AG, priority 2017, dated 2022).

Type in all cases: cell-based
Experiment [1] has as its system L. donovani HU3 strain in mouse peritoneal macrophages. Kind of experiment: Assay for inhibition of parasitemia of Leishmania donovani in mouse macrophages (SYBR Green nuclei count, high-content imaging). To be noted: Leishmania donovani, Peritoneal macrophage, L. donovani in mouse peritoneal macrophages; read-out: L. donovani in Mouse Macrophages EC50. Put shortly:
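Peritoneal macrophages from uninfected BALB/c mice were infected for 24 h with spleen-derived L. donovani HU3 (4×10^5 parasites per 2×10^4 macrophages), then cultured with compound for 5 days at 37° C, 5% CO2. After fixation and permeabilization, parasite nuclei were stained with SYBR Green and counted by high-content imaging.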

Experiment [2] relates to Leishmania donovani axenic amastigote. The experiment is described as follows: In vitro assay for growth inhibition of Leishmania donovani axenic amastigote (Cell TiterGlo luminescence). To be noted: Leishmania donovani, L. donovani axenic amastigotes in vitro; read-out: L. donovani amastigotes EC50. Put shortly:
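Axenic L. donovani amastigotes (9600/well) grown at 37 °C, 5% CO2 in supplemented RPMI 1640, pH 5.5, with compound added from DMSO. After two days, viability read by CellTiter-Glo luminescence against DMSO and control-compound wells.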

Experiment [3] concerns Trypanosoma brucei brucei (Lister 427) strain. Kind of experiment: Assay for growth inhibition against Trypanosoma brucei brucei (Cell TiterGlo ATP luminescence). The note with it: T. brucei brucei (Lister 427), read-out: T. Brucei (HAT) EC50. Put shortly: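 T. b. brucei Lister 427 grown in HMI-9 with 10% FBS and 10% serum plus, seeded at 10,000 parasites/mL with 10-point threefold compound dilutions in duplicate, 37 °C for 2 days. Viability read as ATP luminescence 30 min after Cell TiterGlo; IC50 versus untreated controls.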

Experiment [4] concerns Trypanosoma cruzi amastigotes cultured in 3T3 fibroblast cells. Kind of experiment: Assay for growth inhibition of kinetoplastid parasite Trypanosoma cruzi (beta-galactosidase Tulahuen strain, CPRG readout). To be noted: Trypanosoma cruzi, Fibroblast, T. cruzi amastigotes in 3T3 fibroblast cells; read-out: Buckner infectious T. cruzi EC50. Put shortly: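 3T3 fibroblasts (1,000 cells/well) plated overnight, treated with compound in DMSO, then infected with 10,000 Lac-Z-expressing Tulahuen trypomastigotes. After 6 days, 0.6 mM CPRG with 0.6% NP-40 added for 2 h at room temperature; absorbance gives relative intracellular amastigote numbers. Benznidazole and nifurtimox serve as positive controls.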

pEC50: −log10 of the molar value. Read-outs that look alike come from different tables or passages of the source.

As usually defined, the pEC50 is the negative decadic logarithm of the EC50, by convention in mol/L. In the case of `O=C(Nc1ccc(F)c(-n2cc3cc(N4CC(F)(F)C4)cnc3n2)c1)N1CCC1` [Compound 290, N-{3-[5-(3,3-difluoroazetidin-1-yl)-2H-pyrazolo[3,4-b]pyridin-2-yl]-4-fluorophenyl)azetidine-1-carboxamide], the pEC50 was 8.40 in experiment [1], 8.15 in experiment [2], 8.40 in experiment [3] and 8.40 in experiment [4].

Take `O=C(Nc1ccc(F)c(-n2cc3cc(N4CC(F)C4)cnc3n2)c1)N1CC(F)C1` [Compound 291, 3-fluoro-N-{4-fluoro-3-[5-(3-fluoroazetidin-1-yl)-2H-pyrazolo[3,4-b]pyridin-2-yl]phenyl}azetidine-1-carboxamide]: the pEC50 in experiment [1] was 8.30; in experiment [2], 8.00; in experiment [3], 8.30; in experiment [4], 8.30.

As for `O=C(Nc1ccc(F)c(-n2cc3cc(N4CC(F)C4)cnc3n2)c1)N1CCC1` [Compound 292, N-{4-fluoro-3-[5-(3-fluoroazetidin-1-yl)-2H-pyrazolo[3,4-b]pyridin-2-yl]phenyl}azetidine-1-carboxamide], the pEC50 is 8.10 in experiment [1], 8.30 in experiment [2], 8.30 in experiment [3] and 8.52 in experiment [4].

`O=C(Nc1ccc(F)c(-n2cc3cc(C4CCNCC4)cnc3n2)c1)N1CC(F)C1` [Compound 293, 3-fluoro-N-{4-fluoro-3-[5-(piperidin-4-yl)-2H-pyrazolo[3,4-b]pyridin-2-yl]phenyl}azetidine-1-carboxamide]: the pEC50 in experiment [1] is 4.75; in experiment [2], 5.17; in experiment [3] (Trypanosoma brucei), 6.78; in experiment [4] it was 5.92.

Regarding `O=C(Nc1ccc(F)c(-n2cc3cc(-c4cnccn4)cnc3n2)c1)N1CC(F)C1` [Compound 294, 3-fluoro-N-{4-fluoro-3-[5-(pyrazin-2-yl)-2H-pyrazolo[3,4-b]pyridin-2-yl]phenyl}azetidine-1-carboxamide], the pEC50 was 8.40 in experiment [1], 8.40 in experiment [2], 8.30 in experiment [3] (Trypanosoma brucei) and 8.30 in experiment [4].

For `O=C(Nc1ccc(F)c(-n2cc3cc(-c4c[nH]cn4)cnc3n2)c1)N1CC(F)C1` [Compound 295, 3-fluoro-N-{4-fluoro-3-[5-(1H-imidazol-4-yl)-2H-pyrazolo[3,4-b]pyridin-2-yl]phenyl}azetidine-1-carboxamide], the pEC50 is 5.70 in experiment [1], 6.53 in experiment [2], 7.42 in experiment [3] (Trypanosoma brucei) and 5.37 in experiment [4].

On to `O=C(Nc1ccc(F)c(-n2cc3cc(C4CCN(Cc5ccccc5)CC4)cnc3n2)c1)N1CC(F)C1` [Compound 296, N-{3-[5-(1-benzylpiperidin-4-yl)-2H-pyrazolo[3,4-b]pyridin-2-yl]-4-fluorophenyl}-3-fluoroazetidine-1-carboxamide], for which the pEC50 is 8.70 in experiment [1], 6.67 in experiment [2], 8.30 in experiment [3] (Trypanosoma brucei) and 8.30 in experiment [4].

Turning to `O=C(Nc1ccc(F)c(-n2cc3cc(N4CC(F)(F)C4)cnc3n2)c1)N1CC(F)C1` [Compound 298, N-{3-[5-(3,3-difluoroazetidin-1-yl)-2H-pyrazolo[3,4-b]pyridin-2-yl]-4-fluorophenyl}-3-fluoroazetidine-1-carboxamide], the pEC50 was 8.40 in experiment [1], 7.85 in experiment [2], 8.40 in experiment [3] (Trypanosoma brucei) and 8.40 in experiment [4].

Turning to `O=C(Nc1ccc(F)c(-n2cc3cc(N4CC(F)(F)C4)cnc3n2)c1)N1CC(F)(F)C1` [Compound 299, N-{3-[5-(3,3-difluoroazetidin-1-yl)-2H-pyrazolo[3,4-b]pyridin-2-yl]-4-fluorophenyl}-3,3-difluoroazetidine-1-carboxamide], the pEC50 in experiment [1] is 8.15; in experiment [2] it was 7.54; in experiment [3] (Trypanosoma brucei) it was 8.30; in experiment [4] it was 7.85.

For `O=C(Nc1ccc(F)c(-n2cc3cc(N4CC(F)(F)C4)cnc3n2)c1)N1CC[C@@H](F)C1` [Compound 300, (3R)-N-{3-[5-(3,3-difluoroazetidin-1-yl)-2H-pyrazolo[3,4-b]pyridin-2-yl]-4-fluorophenyl}-3-fluoropyrrolidine-1-carboxamide], the pEC50 is 8.22 in experiment [1], 7.66 in experiment [2], 8.52 in experiment [3] (Trypanosoma brucei) and 8.40 in experiment [4].

`Cn1cnc(-c2cnc3nn(-c4cc(NC(=O)N5CC(F)C5)ccc4F)cc3c2)c1` [Compound 301, 3-fluoro-N-{4-fluoro-3-[5-(1-methyl-1H-imidazol-4-yl)-2H-pyrazolo[3,4-b]pyridin-2-yl]phenyl}azetidine-1-carboxamide]: the pEC50 in experiment [1] is 7.01; in experiment [2], 7.14; in experiment [3] (Trypanosoma brucei), 8.10; in experiment [4], 6.33.

Consider `O=C(Nc1ccc(F)c(-n2cc3cc(N4CC(F)C4)cnc3n2)c1)N1CC[C@@H](F)C1` [Compound 302, (3R)-3-fluoro-N-{4-fluoro-3-[5-(3-fluoroazetidin-1-yl)-2H-pyrazolo[3,4-b]pyridin-2-yl]phenyl}pyrrolidine-1-carboxamide], for which the pEC50 in experiment [1] was 7.82; in experiment [2] it was 6.93; in experiment [3] (Trypanosoma brucei), 8.30; in experiment [4], 8.70.

Take `O=C(Nc1ccc(F)c(-n2cc3cc(N4CC(F)C4)cnc3n2)c1)N1CC(F)(F)C1` [Compound 303, 3,3-difluoro-N-{4-fluoro-3-[5-(3-fluoroazetidin-1-yl)-2H-pyrazolo[3,4-b]pyridin-2-yl]phenyl}azetidine-1-carboxamide]: the pEC50 in experiment [1] is 7.82; in experiment [2] it was 6.31; in experiment [3] (Trypanosoma brucei), 8.30; in experiment [4] it was 8.00.

For the compound `Cn1cc(-c2cnc3nn(-c4cc(NC(=O)N5CC(F)C5)ccc4F)cc3c2)cn1` [Compound 304, 3-fluoro-N-{4-fluoro-3-[5-(1-methyl-1H-pyrazol-4-yl)-2H-pyrazolo[3,4-b]pyridin-2-yl]phenyl}azetidine-1-carboxamide], the pEC50 was 8.52 in experiment [1], 8.40 in experiment [2], 8.30 in experiment [3] (Trypanosoma brucei) and 7.52 in experiment [4].

As to `O=C(Nc1ccc(F)c(-n2cc3cc(C4CCN(Cc5ccc(F)cc5)CC4)cnc3n2)c1)N1CC(F)C1` [Compound 305, 3-fluoro-N-[4-fluoro-3-(5-{1-[(4-fluorophenyl)methyl]piperidin-4-yl]-2H-pyrazolo[3,4-b]pyridin-2-yl)phenyl]azetidine-1-carboxamide], the negative logarithm of the EC50 (pEC50) in experiment [1] was 8.52; in experiment [2], 6.96; in experiment [3] (Trypanosoma brucei), 8.30; in experiment [4], 9.00.

For `[2H]C([2H])([2H])N(c1cnc2nn(-c3cc(NC(=O)N4CCC4)ccc3F)cc2c1)C([2H])([2H])[2H]` [Compound 306, N-(3-{5-[bis(^2H3)methylamino]-2H-pyrazolo[3,4-b]pyridin-2-yl}-4-fluorophenyl)azetidine-1-carboxamide], the pEC50 in experiment [1] is 8.40; in experiment [2], 7.05; in experiment [3] (Trypanosoma brucei), 8.30; in experiment [4] it was 8.70.

For `[2H]C([2H])([2H])N(c1cnc2nn(-c3cc(NC(=O)N4CC(F)(F)C4)ccc3F)cc2c1)C([2H])([2H])[2H]` [Compound 307, N-(3-{5-[bis(^2H3)methylamino]-2H-pyrazolo[3,4-b]pyridin-2-yl}-4-fluorophenyl)-3,3-difluoroazetidine-1-carboxamide], the pEC50 was 7.92 in experiment [1], 6.55 in experiment [2], 8.30 in experiment [3] (Trypanosoma brucei) and 7.80 in experiment [4].

As for `[2H]C([2H])([2H])N(c1cnc2nn(-c3cc(NC(=O)N4CC[C@@H](F)C4)ccc3F)cc2c1)C([2H])([2H])[2H]` [Compound 308, (3R)-N-(3-{5-[bis(^2H3)methylamino]-2H-pyrazolo[3,4-b]pyridin-2-yl}-4-fluorophenyl)-3-fluoropyrrolidine-1-carboxamide], the pEC50 in experiment [1] was 8.70; in experiment [2] it was 6.25; in experiment [3] (Trypanosoma brucei), 8.30; in experiment [4], 8.40.

As to `O=C(Nc1ccc(F)c(-n2cc3cc(-c4ncccc4F)cnc3n2)c1)N1CC(F)(F)C1` [Compound 309, 3,3-difluoro-N-{4-fluoro-3-[5-(3-fluoropyridin-2-yl)-2H-pyrazolo[3,4-b]pyridin-2-yl]phenyl}azetidine-1-carboxamide], the pEC50 in experiment [1] is 8.70; in experiment [2] it was 9.00; in experiment [3] (Trypanosoma brucei), 8.30; in experiment [4] it was 9.00.

Take `O=C(Nc1ccc(F)c(-n2cc3cc(-c4ncccc4Cl)cnc3n2)c1)N1CC(F)(F)C1` [Compound 310, N-{3-[5-(3-chloropyridin-2-yl)-2H-pyrazolo[3,4-b]pyridin-2-yl]-4-fluorophenyl}-3,3-difluoroazetidine-1-carboxamide]: the pEC50 is 8.70 in experiment [1], 8.70 in experiment [2], 8.30 in experiment [3] (Trypanosoma brucei) and 9.00 in experiment [4].
